Data taken from publication PMC11823609, “Advancements in the fight against globally distributed OXA-48 carbapenemase: evaluating the new generation of carbapenemase inhibitors” (Antimicrobial Agents and Chemotherapy, 2025).
Values after ≈ are worked out from the molar mass of the structure shown. Where two headings read alike, the source gives them in different places.

Legend:
Assay in all cases: microbe, parasite or virus in culture
[1] = system: E. coli TG1; assay type: cell-based; conditions: Escherichia coli
Protocol: (§1) The MICs of each of the individual compounds (antibiotics or inhibitors) were also determined. The MICs were determined for the E. coli isogenic expressing OXA-48 (and both OXA-48 and CTX-M-14) to assess their activity against the carbapenemase; MICs were also determined for the 18 Enterobacterales clinical isolates in order to evaluate the new inhibitors against also their resistance concomitant mechanisms. The MICs were determined in triplicate experiments, and the EUCAST 13.0 clinical breakpoints were followed (http://www.eucast.org/clinical_breakpoints).
(§2) For comparative evaluation of the activity of each inhibitor alone against the carbapenemase OXA-48, all inhibitors (at 4 mg/L) were tested in the presence of a carbapenem (ertapenem, adequate substrate) and a cephalosporin (ceftazidime, poor substrate) as reporter substrates. This prevented any possible masking effect produced by the different partner antibiotics. These assays were also performed with isogenic transformants and clinical isolates.

[2] = system: E. coli TG1 (OXA-48); assay type: cell-based, Escherichia coli
Protocol: as §1, §2

[3] = system: E. coli HB4 ΔompC/F (OXA-48); assay type: cell-based, Escherichia coli
Source text: (§3) The E. coli HB4 strain was used to gain a more complete perspective, by evaluating the involvement in resistance of a low permeability background with the carbapenemase OXA-48, as well as coproduction of an ESBL and the carbapenemase; thus, the ESBL CTX-M-14 and OXA-48 were cloned together and separately into E. coli HB4. The characteristics of these strains and transformants are summarized in Table S1, and the cloning procedures are outlined in the supplemental methods.
as §1, §2

[4] = system: E. coli HB4 ΔompC/F; assay type: cell-based, Escherichia coli
Source text: as §3, §1, §2

[5] = system: E. cloacae strain 231 (MLST 171, No ESBL); assay type: cell-based; conditions: E. cloacae 231
Protocol: (§4) The efficacy of these new BLIs was also evaluated against 18 genetically diverse WGS-characterized collection of OXA-48-positive Enterobacterales recovered as part of the Carbapenem-resistant Enterobacterales Genome Database Project (https://genomes.cnag.cat/incredble) listed in Table S2 ([13]). Combinations of clinical isolates (five pairs of Klebsiella pneumoniae, two pairs of Enterobacter cloacae, and two pairs of E. coli) were chosen for analysis: (i) nine strains carrying ESBLs; and (ii) nine strains (genetically closer available strains) without ESBLs.
as §1, §2

[6] = system: E. cloacae strain 235 (MLST 171, ESBL); assay type: cell-based
Protocol: as §4, §1, §2

[7] = system: E. cloacae strain 272 (MLST 78, ESBL); assay type: cell-based
Protocol: as §4, §1, §2

[8] = system: E. cloacae strain 281 (MLST 78, No ESBL); assay type: cell-based; conditions: E. cloacae 281
Protocol: as §4, §1, §2

[9] = system: E. coli strain 103 (MLST 10, ESBL); assay type: cell-based
Protocol: as §4, §1, §2

[10] = system: E. coli strain 177 (MLST 131, ESBL); assay type: cell-based
Protocol: as §4, §1, §2

[11] = system: E. coli strain 224 (MLST 127, No ESBL); assay type: cell-based; conditions: E. coli 224
Protocol: as §4, §1, §2

[12] = system: E. coli strain 264 (MLST 131, No ESBL); assay type: cell-based; conditions: E. coli 264
Protocol: as §4, §1, §2

[13] = system: K. pneumoniae strain 125 (MLST 307, ESBL); assay type: cell-based
Protocol: as §4, §1, §2

[14] = system: K. pneumoniae strain 170 (MLST 307, No ESBL); assay type: cell-based; conditions: K. pneumoniae 170
Protocol: as §4, §1, §2

[15] = system: K. pneumoniae strain 19 (MLST 11, ESBL); assay type: cell-based
Protocol: as §4, §1, §2

[16] = system: K. pneumoniae strain 194 (MLST 392, No ESBL); assay type: cell-based; conditions: K. pneumoniae 194
Protocol: as §4, §1, §2

[17] = system: K. pneumoniae strain 23 (MLST 392, ESBL); assay type: cell-based
Protocol: as §4, §1, §2

[18] = system: K. pneumoniae strain 237 (MLST 147, No ESBL); assay type: cell-based; conditions: K. pneumoniae 237
Protocol: as §4, §1, §2

[19] = system: K. pneumoniae strain 238 (MLST 15, ESBL); assay type: cell-based
Protocol: as §4, §1, §2

[20] = system: K. pneumoniae strain 413 (MLST 147, ESBL); assay type: cell-based
Protocol: as §4, §1, §2

[21] = system: K. pneumoniae strain 497 (MLST 11, No ESBL); assay type: cell-based; conditions: K. pneumoniae 497
Protocol: as §4, §1, §2

[22] = system: K. pneumoniae strain 71 (MLST 15, No ESBL); assay type: cell-based; conditions: K. pneumoniae 71
Protocol: as §4, §1, §2

[23] = ceftazidime alone or with BLI at 4 mg/L
[24] = Enterobacter cloacae, BL alone or BL/BLI: AVI, REL, TAN, DUR 4 mg/L, VAB, XER 8 mg/L, ZID, NAC 1:1, read-out: MIC
[25] = Escherichia coli, BL alone or BL/BLI: AVI, REL, TAN, DUR 4 mg/L, VAB, XER 8 mg/L, ZID, NAC 1:1, read-out: MIC
[26] = Klebsiella pneumoniae, BL alone or BL/BLI: AVI, REL, TAN, DUR 4 mg/L, VAB, XER 8 mg/L, ZID, NAC 1:1, read-out: MIC
[27] = Enterobacter cloacae, β-lactamase inhibitor alone, read-out: MIC
[28] = Escherichia coli, β-lactamase inhibitor alone, read-out: MIC
[29] = Klebsiella pneumoniae, β-lactamase inhibitor alone, read-out: MIC

SMILES: CC(C)(O/N=C(\C(=O)N[C@@H]1C(=O)N2C(C(=O)[O-])=C(C[n+]3ccccc3)CS[C@H]12)c1csc(N)n1)C(=O)O [CAZ, ceftazidime]
- MIC ([1]; BL alone or BL/BLI: AVI, REL, TAN, DUR 4 mg/L, VAB, XER 8 mg/L, ZID, NAC 1:1): 0.25 µg/mL (≈ 0.457 µM)
- MIC [1, 23]: 0.12 µg/mL (≈ 0.22 µM)
- MIC ([2]; E. coli TG1 (OXA-48), ceftazidime alone or with BLI at 4 mg/L): 0.25 µg/mL (≈ 0.457 µM)
- MIC ([2]; Escherichia coli): 0.25 µg/mL (≈ 0.457 µM)
- MIC ([3]; E. coli HB4 ΔompC/F (OXA-48), ceftazidime alone or with BLI at 4 mg/L): 1 µg/mL (≈ 1.83 µM)
- MIC ([3]; Escherichia coli): 1 µg/mL (≈ 1.83 µM)
- MIC ([4]; E. coli HB4 ΔompC/F, ceftazidime alone or with BLI at 4 mg/L): 1 µg/mL (≈ 1.83 µM)
- MIC ([4]; Escherichia coli): 1 µg/mL (≈ 1.83 µM)
- MIC [5, 23]: 1 µg/mL
- MIC [5, 24]: 1 µg/mL
- MIC ([6]; E. cloacae 235, ceftazidime alone or with BLI at 4 mg/L): 128 µg/mL
- MIC ([6]; Enterobacter cloacae): 128 µg/mL
- MIC ([7]; E. cloacae 272, ceftazidime alone or with BLI at 4 mg/L): ≥256 µg/mL
- MIC ([7]; Enterobacter cloacae): ≥ 256 µg/mL
- MIC [8, 23]: 0.5 µg/mL
- MIC [8, 24]: 0.5 µg/mL
- MIC ([9]; E. coli 103, ceftazidime alone or with BLI at 4 mg/L): 4 µg/mL
- MIC ([9]; Escherichia coli): 4 µg/mL
- MIC ([10]; E. coli 177, ceftazidime alone or with BLI at 4 mg/L): 128 µg/mL
- MIC ([10]; Escherichia coli): 128 µg/mL
- MIC [11, 23]: 0.25 µg/mL
- MIC [11, 25]: 0.25 µg/mL
- MIC [12, 23]: 0.25 µg/mL
- MIC [12, 25]: 0.25 µg/mL
- MIC ([13]; K. pneumoniae 125, ceftazidime alone or with BLI at 4 mg/L): 64 µg/mL
- MIC ([13]; Klebsiella pneumoniae): 64 µg/mL
- MIC [14, 23]: 0.5 µg/mL
- MIC [14, 26]: 0.5 µg/mL
- MIC ([15]; K. pneumoniae 19, ceftazidime alone or with BLI at 4 mg/L): 32 µg/mL
- MIC ([15]; Klebsiella pneumoniae): 32 µg/mL
- MIC [16, 23]: 0.5 µg/mL
- MIC [16, 26]: 0.5 µg/mL
- MIC ([17]; K. pneumoniae 23, ceftazidime alone or with BLI at 4 mg/L): 128 µg/mL
- MIC ([17]; Klebsiella pneumoniae): 128 µg/mL
- MIC [18, 23]: 0.25 µg/mL
- MIC [18, 26]: 0.25 µg/mL
- MIC ([19]; K. pneumoniae 238, ceftazidime alone or with BLI at 4 mg/L): 32 µg/mL
- MIC ([19]; Klebsiella pneumoniae): 32 µg/mL
- MIC ([20]; K. pneumoniae 413, ceftazidime alone or with BLI at 4 mg/L): 32 µg/mL
- MIC ([20]; Klebsiella pneumoniae): 32 µg/mL
- MIC [21, 23]: 0.5 µg/mL
- MIC [21, 26]: 0.5 µg/mL
- MIC [22, 23]: 0.5 µg/mL
- MIC [22, 26]: 0.5 µg/mL

SMILES: CC1=C[C@@H]2CN(C(=O)N2OS(=O)(=O)O)[C@@H]1C(N)=O [Durlobactam, durlobactam]
- MIC ([1]; β-lactamase inhibitor alone): 0.12 µg/mL (≈ 0.433 µM)
- MIC ([2]; Escherichia coli): 0.12 µg/mL (≈ 0.433 µM)
- MIC ([3]; Escherichia coli): 1 µg/mL (≈ 3.61 µM)
- MIC ([4]; Escherichia coli): 0.5 µg/mL (≈ 1.8 µM)
- MIC [5, 27]: 1 µg/mL
- MIC ([6]; Enterobacter cloacae): 4 µg/mL
- MIC ([7]; Enterobacter cloacae): 1 µg/mL
- MIC [8, 27]: 4 µg/mL
- MIC ([9]; Escherichia coli): 0.25 µg/mL
- MIC ([10]; Escherichia coli): 2 µg/mL
- MIC [11, 28]: 0.25 µg/mL
- MIC [12, 28]: 0.25 µg/mL
- MIC ([13]; Klebsiella pneumoniae): 2 µg/mL
- MIC [14, 29]: 0.5 µg/mL
- MIC ([15]; Klebsiella pneumoniae): 2 µg/mL
- MIC [16, 29]: 1 µg/mL
- MIC ([17]; Klebsiella pneumoniae): 0.5 µg/mL
- MIC [18, 29]: 0.5 µg/mL
- MIC ([19]; Klebsiella pneumoniae): 0.5 µg/mL
- MIC ([20]; Klebsiella pneumoniae): 4 µg/mL
- MIC [21, 29]: 2 µg/mL
- MIC [22, 29]: 2 µg/mL
